The term IC50 denotes the midpoint of a concentration-inhibition curve. The low end stands for greater potency in that assay, the high end for weaker potency in that assay.

Structures are written as SMILES. Counter-ions that a name gives are not always drawn.

Assay [1] addresses Full-length PRMT5 enzyme co-expressed with His6-MEP50 (Homo sapiens (Human), UniProt O14744). As to the kind of experiment: PRMT5 Biochemical Assay. Particulars: histone H4 derived peptide substrate 1 μM, 1 μM S-Adenosyl methionine, 4 hours at 37 degree Celsius, Transcreener EPIGEN fluorescence polarisation. How it is done:
Compounds of the invention may be tested for in vitro activity in the following assay:
A histone H4 derived peptide is used as substrate (amino acid sequence: […]NH2). Full-length PRMT5 enzyme (NCBI Reference sequence NP_006100.2) was co-expressed with His6-MEP50 in insect cells and purified via Nickel immobilized metal affinity and gel filtration chromatography (“the enzyme”).
The 6 μL reactions are run in Greiner brand black 384-well low volume assay plates. All reactions contained assay buffer (phosphate buffered saline, 0.01% (v/v) Tween-20, 0.01% (w/v) albumin from chicken egg white, 1 mM Dithiothreitol, 1 μM peptide substrate, 1 μM S-Adenosyl methionine, and 15 ng/reaction enzyme, with the enzyme being omitted from negative control reactions. Compounds were added in a volume of 100 nL from dilution series prepared in DMSO, positive and negative control reactions receiving the same volume DMSO without compound. The plates were sealed with adhesive seals and incubated for 4 hours at 37 degree Celsius. Reaction progress was measured using the Transcreener™ EPIGEN methyltransferase assay (BellBrook Labs, Madison, Wis.) as recommended by the manufacturer. To each reaction 2 μL detection mix were added, containing coupling enzymes, fluorescence polarisation tracer, and AMP antibody. Plates were incubated for 90 minutes before being read on a PerkinElmer EnVision™ plate reader in fluorescence polarisation mode. IC50 values were obtained from the raw readings by calculating percent inhibition (% I) for each reaction relative to controls on the same plate (% I=(I−CN)/(CP−CN) where CN/CP are the averages of the negative/positive reactions, respectively), then fitting the % I data vs. compound concentration [I] to % I=(A+((B−A)/(1+((C/[I])^D)))) where A is the lower asymptote, B is the upper asymptote, C is the IC50 value, and D is the slope.
(In general: In fluorescence polarisation assays a small probe gives low polarisation when free and higher when bound to something large.)

The next assay has as its system TE11 cells. The assay can be described thus: PRMT5 Biomarker Assay (symmetrical dimethylation of arginine, Histone H4 Arginine 3). The assay is classed as cell-based. Particulars: Homo sapiens, TE-11; TE11 cell line, 72 hours incubation, Di-Methyl Histone H4 Arginine 3 level, high content imaging. How it is done:
Compounds of the invention may be tested for potency to inhibit symmetrical dimethylation of arginine in the following assay:
The cell line TE11 was seeded at a density of 6,000 cells per well in 96 well optical quality tissue culture plates in DME medium and 10% foetal bovine serum, and allowed to adhere for 5 hours under standard culture conditions (37 degree Celsius, 5% CO2). Compound dilutions prepared in DMSO were added to the medium, with negative control wells reserved for treatment with DMSO only and maximum inhibition controls receiving a potent PRMT5 inhibitor compound at 1 μM concentration. After incubation for 72 hours, the cells were fixed with 3.7% formaldehyde in PBS for 30 minutes at room temperature, washed with phosphate buffer saline and blocked with Odyssey blocking buffer (LI-COR, Lincoln, Nebr.). Rabbit anti-Di-Methyl Histone H4 Arginine 3 specific antibody (Epigentek) in Odyssey blocking buffer was added and incubated for 14 hours at 4 degree Celsius. […] Plates were washed and read on a PerkinElmer Envision 2103 in fluorescence intensity scanning mode (24 scans across the well area). […] Using a Columbus image analysis pipeline, individual nuclei were located by Hoechst 33342 stain and the methylation level was calculated from the Alexa647-related intensity in the same area. […]

Full-length PRMT5 enzyme co-expressed with His6-MEP50, sequence (O14744 whole entry): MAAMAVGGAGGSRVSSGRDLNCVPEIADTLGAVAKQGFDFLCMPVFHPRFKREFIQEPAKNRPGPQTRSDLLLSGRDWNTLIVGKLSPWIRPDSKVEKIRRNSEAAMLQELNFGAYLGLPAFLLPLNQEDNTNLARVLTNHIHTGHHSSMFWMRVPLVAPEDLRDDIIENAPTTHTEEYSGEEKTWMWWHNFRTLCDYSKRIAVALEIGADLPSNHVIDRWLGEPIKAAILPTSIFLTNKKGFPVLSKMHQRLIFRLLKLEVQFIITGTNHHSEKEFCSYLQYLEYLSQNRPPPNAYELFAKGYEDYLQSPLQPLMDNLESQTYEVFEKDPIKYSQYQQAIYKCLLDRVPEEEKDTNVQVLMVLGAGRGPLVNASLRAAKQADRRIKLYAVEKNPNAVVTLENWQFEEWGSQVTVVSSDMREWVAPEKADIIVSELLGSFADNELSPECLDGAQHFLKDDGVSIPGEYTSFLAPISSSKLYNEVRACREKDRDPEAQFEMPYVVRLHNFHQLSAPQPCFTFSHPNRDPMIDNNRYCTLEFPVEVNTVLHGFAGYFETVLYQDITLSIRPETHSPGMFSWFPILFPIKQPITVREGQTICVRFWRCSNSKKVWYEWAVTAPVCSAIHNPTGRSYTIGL
Full-length PRMT5 enzyme co-expressed with His6-MEP50, sequence (Q9BQA1 whole entry partner): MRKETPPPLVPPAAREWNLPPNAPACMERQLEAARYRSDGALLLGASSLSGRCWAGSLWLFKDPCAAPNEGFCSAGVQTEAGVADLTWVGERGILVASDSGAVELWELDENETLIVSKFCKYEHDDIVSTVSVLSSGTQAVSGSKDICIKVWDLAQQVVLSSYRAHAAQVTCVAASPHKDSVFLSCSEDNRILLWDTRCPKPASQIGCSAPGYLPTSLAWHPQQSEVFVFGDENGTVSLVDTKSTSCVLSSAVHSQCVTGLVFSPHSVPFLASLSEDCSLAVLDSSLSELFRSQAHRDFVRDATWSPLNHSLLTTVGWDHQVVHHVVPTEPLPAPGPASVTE

Take `CCc1nn(C[C@@H](O)[C@@H]2Cc3ccccc3CN2)c(=O)c2ccc(C(=O)N3C4CCC3COC4)cc12` [Example 3, 6-(3-Oxa-8-azabicyclo[3.2.1]octane-8-carbonyl)-4-ethyl-2-((R)-2-hydroxy-2-((S)-1,2,3,4-tetrahydroisoquinolin-3-yl)ethyl)phthalazin-1(2H)-one hydrochloride]: the results for the concentration for half-maximal inhibition (IC50) (in assay [1]; in the assay on TE11 cells) were 39 nM and 1 nM, respectively.

For the compound `O=C(c1ccc2c(=O)n(C[C@@H](O)[C@@H]3Cc4ccccc4CN3)ccc2c1)N1C2CCC1COC2` [Example 1, 6-(3-Oxa-8-azabicyclo[3.2.1]octane-8-carbonyl)-2-((R)-2-hydroxy-2-((S)-1,2,3,4-tetrahydroisoquinolin-3-yl)ethyl)isoquinolin-1(2H)-one hydrochloride], the IC50 stood at 533 nM in assay [1] and 430 nM in the assay with TE11 cells. In assay [1], `Cc1nn(C[C@@H](O)[C@@H]2Cc3ccccc3CN2)c(=O)c2ccccc12` [Example 2, 2-((R)-2-Hydroxy-2-((S)-1,2,3,4-tetrahydroisoquinolin-3-yl)ethyl)-4-methylphthalazin-1(2H)-one hydrochloride] had a 50% inhibitory concentration (IC50) of 7320 nM.

Source of the values: patent US10550096B2, “Tetrahydroisoquinolines as PRMT5 inhibitors” (CTXT PTY LTD, priority 2016, dated 2020).
